Patent US20100075907A1, “NEUROMEDIN U RECEPTOR AGONISTS AND USES THEREOF” (priority 2006, published 2010)
“Also recorded” adds a separate entry of the source. Non-standard residues stand in square brackets, D forms with d. (PEG)2 40 kDa = branched PEG of 40 kDa linked via the Cys side-chain thiol (code C2 = Cys(PEG)2 40 kDa)

What was measured:
diet-induced obese mice = assay: Feeding study in diet-induced obese mice (food intake, body weight); format: in vivo; conditions: for % Food intake (FI) reductions Day 1: Day 1, based on vehicle responses; for % Food intake (FI) reductions Day 2: Day 2, based on vehicle responses; for % Food intake (FI) reductions Day 3: Day 3, based on vehicle responses; for anorectic effect: acute administration; for body weight / duration of reductions in food intake: single acute subcutaneous administration
Description: NMUR1 knockout (Nmur1−/−) mice were generated using standard homologous recombination techniques. Nmur1 mice were subsequently transferred to Taconic Farms where they were either maintained on a 75% C57BL/6×25% 129S6/SvEv mixed genetic background or backcrossed six generations to C57BL/6. NMUR2 knockout (Nmur2−/−) mice were licensed from Deltagen Inc., San Mateo, Calif. and subsequently transferred to Taconic Farms where they were either maintained on a 75% C57BL/6×25% 129/OlaHsd mixed genetic background or backcrossed for seven generations to C57BL/6. NMUR1 and NMUR2 double knockout (Nmur1&2−/−) mice were generated by crossing N6 Nmur1−/− mice to N7 Nmur2−/− mice. Mice were individually housed in Tecniplast cages in a conventional SPF facility. Mice were initially maintained on a regular chow diet and then early in their life were switched to a high fat diet (D12492: 60% kcal from fat; Research Diets, Inc., New Brunswick, N.J.) with ad libitum access to water in a 12-hour light/12-hour dark cycle.
Ad libitum fed male diet-induced obese mice were weighed and dosed either i.p. or s.c. about 30 minutes prior to the onset of the dark phase of the light cycle and provided with a preweighed aliquot of high fat diet D12492 which was then weighed 2 hours and 18 hours (day 1), 42 hours (day 2), 66 hours (day 3), and 90 hours (day 4) after the onset of the initial dark phase. Mice were weighed at the 18, 42, 66 and 90 hour time points.

[1] = Pharmacokinetic analysis using the FLIPR bioassay; format: in vivo; conditions: mice, 10 mg/kg subcutaneously, compared with hNMU-25
Experimental: Neuromedin U receptor agonist NMU12 exposure levels in dosed animals were measured using the bioassay and compared with hNMU-25 exposure levels. Animals were dosed subcutaneously with 10 mg/kg NMU12 or hNMU-25 and plasma was collected at various time points post-dose. The bioassay was a FLIPR-based assay, which was performed essentially as described above with the following modifications. Sample preparation prior to the assay was performed on ice to minimize degradation of plasma samples. The assay was run with 4% plasma as the final concentration. A three-point titration was done with the dosed plasma and tested on human NMUR1-expressing cell lines using FLIPR. The response after sample addition was taken as the maximum fluorescence units minus the fluorescence immediately prior to stimulation for each well. In addition to a three-point titration of dosed plasma samples, a 16-point titration of the peptide (hNMU-25 or NMU12) was run in 4% plasma (naive plasma) to serve as the standard. The concentration of the peptide in plasma was calculated based on extrapolations from the appropriate standard using the GraphPad Prism software.

hNMUR2 = hNMUR2 (Homo sapiens, UniProt Q9GZQ4); assay: FLIPR calcium mobilization assay, human NMUR2; format: cell-based; set-up: expressed in transfected cells; host or cells: FLP-In CHO or HEK-293 FLP-In cells (pcDNA5); HEK-293/aeq17 lines (pcDNA3.1) were also made; conditions: human NMUR2
hNMUR2, sequence (Q9GZQ4 whole entry): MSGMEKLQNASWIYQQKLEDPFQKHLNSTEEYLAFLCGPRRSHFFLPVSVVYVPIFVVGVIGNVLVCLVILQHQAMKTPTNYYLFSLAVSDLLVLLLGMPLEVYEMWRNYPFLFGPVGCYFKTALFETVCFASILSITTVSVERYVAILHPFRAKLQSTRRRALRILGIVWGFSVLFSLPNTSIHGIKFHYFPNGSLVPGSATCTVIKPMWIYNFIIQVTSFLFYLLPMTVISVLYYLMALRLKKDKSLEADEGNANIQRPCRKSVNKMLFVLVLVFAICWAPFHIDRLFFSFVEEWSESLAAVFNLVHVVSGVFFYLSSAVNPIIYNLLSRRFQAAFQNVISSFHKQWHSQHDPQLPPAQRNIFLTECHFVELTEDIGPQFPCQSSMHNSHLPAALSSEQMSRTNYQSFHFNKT
Description: (§1) Human, mouse or rat cDNAs encoding NMUR1 or NMUR2 (as described in Howard et al. Nature 406: 70-74 (2000) were subcloned in pcDNA5 (Invitrogen) and transfected into FLP-In CHO cells and HEK-293 FLP-In cells purchased from Invitrogen (Carlsbad, Calif.) using lipofectamine (Invitrogen). The Flp-In system allows integration and expression of a particular gene of interest at a specific genomic location utilizing the Flp recombinase from yeast. The transfected cells were selected by growth in medium containing 200 μg/mL hygromycin (Invitrogen). Populations were frozen at early passage numbers, and these stocks were used for further studies. Stable clones that expressed the mRNAs were identified functionally by FLIPR as well as by RT-PCR. […] Two different rodent NMUR1 cell lines were thus generated: one with the codon as predicted from the genomic databases and another cell line with an engineered methionine (ATG) as the start codon. Additionally, stable cell lines expressing the human receptors were generated in HEK-293/aeq17 cells which stably express the aequorin gene under the CMV promoter. The human NMUR2 cDNA was cloned into pcDNA3.1 and human NMUR1 was subcloned into pIRES-puro (Clontech, Mountain View, Calif.), after transfection cells were selected in media containing G418 and either hygromycin (NMUR2) or puromycin (NMUR1).
(§2) The NMU receptors signal primarily through Gαq/11 proteins; therefore calcium mobilization assays can be utilized for functional activity.
(§3) Stable cell lines expressing human and or rodent NMUR1 or human NMUR2 receptors were plated at a density of 12,000 cells per well overnight on poly-lysine coated 384-well black-walled plates. The following day, the media was removed from the plates and the cells were subsequently loaded with Fluo-3 (Molecular Probes), a calcium sensitive dye, diluted in FLIPR buffer (1× Hank's buffered saline containing 20 mM HEPES, 0.1% BSA, 2.5 mM probenecid (Sigma) and 1.6 mM TR40). All reagents are from Invitrogen unless otherwise noted. Peptide stocks were resuspended in DMSO at a stock concentration of 2 mM and diluted in FLIPR buffer on the day of the experiment to a 4 μM working stock solution.
(§4) After a 90 minute incubation at room-temperature, cell plates were loaded onto a FLIPR (Molecular Devices) to monitor cellular fluorescence (excitation=488 nm; emission=540 nm) before and after compound/peptide addition. Eight to twelve point dose responses were tested on NMUR-expressing cell lines using FLIPR with 1 μM peptide as the highest dose. The response after peptide addition was taken as the maximum fluorescence units minus the fluorescence immediately prior to stimulation for each well. EC50 values were calculated using GraphPad Prism (San Diego, Calif.) software.
(§5) In vitro responses of Neuromedin U receptor agonists (NMU1 to NMU25) in the FLIPR assay for human (Table 3), mouse (Table 4) and rat (Table 5) NMUR1 and NMUR2. EC50s are reported in nM values. Percent activity refers to the maximum response at 1 μM compared to the hNMU-25 response at the same concentration. NT=not tested.

hNMUR1 = target: T1, hNMUR1 (Homo sapiens, UniProt Q9HB89); assay: FLIPR calcium mobilization assay, human NMUR1; format: cell-based; set-up: expressed in transfected cells; host or cells: FLP-In CHO or HEK-293 FLP-In cells (pcDNA5); HEK-293/aeq17 lines (pIRES-puro) were also made; conditions: human NMUR1
T1 sequence (Q9HB89 1-426): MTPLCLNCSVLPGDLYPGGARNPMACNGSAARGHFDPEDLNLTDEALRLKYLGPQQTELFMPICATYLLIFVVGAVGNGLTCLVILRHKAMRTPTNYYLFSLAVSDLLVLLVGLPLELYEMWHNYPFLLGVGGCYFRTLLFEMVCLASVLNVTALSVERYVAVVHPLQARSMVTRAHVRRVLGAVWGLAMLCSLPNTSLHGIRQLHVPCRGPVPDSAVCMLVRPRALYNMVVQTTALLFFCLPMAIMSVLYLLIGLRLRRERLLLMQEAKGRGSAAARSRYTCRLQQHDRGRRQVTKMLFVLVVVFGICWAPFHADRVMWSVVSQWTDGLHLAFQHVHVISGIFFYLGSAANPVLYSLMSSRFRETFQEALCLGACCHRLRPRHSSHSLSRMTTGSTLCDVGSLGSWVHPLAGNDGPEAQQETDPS
Description: as §1, §2, §3, §4, §5

Ac-C2-Ttds-FLFRPRN-CONH2 (Ac-CFLFRPRN-NH2; not fully specified (residue 1); printed as Ac-C2-Ttds-FLFRPRN-CONH2) [NMU16, C2 = Cys(PEG)240 kDa]
Body weight (BW) change (in grams) {relative to vehicle} Day 1 (diet-induced obese mice; 10 mg/kg): −0.3 grams | % Food intake (FI) reductions Day 1 (diet-induced obese mice; 10 mg/kg): 11% | Body weight (BW) change (in grams) {relative to vehicle} Day 1 (diet-induced obese mice; 30 mg/kg): −0.9 grams | % Food intake (FI) reductions Day 1 (diet-induced obese mice; 30 mg/kg): 25%

Ac-C2ASQSRGYFLFRPRN-CONH2 (Ac-C((PEG)2 40 kDa)ASQSRGYFLFRPRN-NH2) [NMU18, C2 = Cys(PEG)240 kDa]
extension of serum half-life by PEGylation (diet-induced obese mice): two days | Body weight (BW) change (in grams) {relative to vehicle} Day 1 (diet-induced obese mice; 10 mg/kg): −2.6 grams | % Food intake (FI) reductions Day 1 (diet-induced obese mice; 10 mg/kg): 71% | Body weight (BW) change (in grams) {relative to vehicle} Day 2 (diet-induced obese mice; 10 mg/kg): −0.2 grams | % Food intake (FI) reductions Day 2 (diet-induced obese mice; 10 mg/kg): 40%

Ac-C2FRVDEEFQSPFASQSRGYFLFRPRN-CONH2 [NMU12] (Ac-C((PEG)2 40 kDa)FRVDEEFQSPFASQSRGYFLFRPRN-NH2) [C2 = Cys(PEG)240 kDa from NOF Corporation (SUNBRIGHT GL2-400MA)]
half-life in human plasma: greater than three days | metabolic stability in vivo (plasma exposure) [1]: greater metabolic stability in vivo | Body weight (BW) change (in grams) {relative to vehicle} Day 1 (diet-induced obese mice; 10 mg/kg): −1.8 grams | % Food intake (FI) reductions Day 1 (diet-induced obese mice; 10 mg/kg): 51% | Body weight (BW) change (in grams) {relative to vehicle} Day 2 (diet-induced obese mice; 10 mg/kg): −1.3 grams | % Food intake (FI) reductions Day 2 (diet-induced obese mice; 10 mg/kg): 50% | Body weight (BW) change (in grams) {relative to vehicle} Day 3 (diet-induced obese mice; 10 mg/kg): −0.2 grams | % Food intake (FI) reductions Day 3 (diet-induced obese mice; 10 mg/kg): 15% | duration of reductions in food intake and body weight (diet-induced obese mice; NMUR1 knockout animals): two days post dose | duration of reductions in food intake and body weight (diet-induced obese mice; NMUR2 knockout animals): only overnight effects | anorectic effect (diet-induced obese mice; NMUR1/NMUR2 double knockout animals): no effect was observed | anorectic effect (diet-induced obese mice; wild-type animals): highly efficacious | cumulative food intake reduction relative to the vehicle treated group (diet-induced obese mice; chronic administration QD, Q2D or Q3D): 12-27% | food intake (diet-induced obese mice; peripheral administration, Nmur1 knockout mice): able to reduce food intake | crossing the blood-brain barrier (diet-induced obese mice; peripheral administration, inferred from knockout mice): capable of crossing the blood-brain barrier; also recorded: able to cross the blood-brain barrier | body weight (diet-induced obese mice): significant reduction | duration of reductions in food intake (diet-induced obese mice): three days

Ac-C2FRVDEEFQSPFASQSRGYFaWRPRN-CONH2 (Ac-C((PEG)2 40 kDa)FRVDEEFQSPFASQSRGYF[dA]WRPRN-NH2) [NMU14, C2 = Cys(PEG)240 kDa; a = D-Alanine]
Body weight (BW) change (in grams) {relative to vehicle} Day 1 (diet-induced obese mice; 50 mg/kg): −0.1 grams

Ac-C2GYFLFRPRN-CONH2 ({Ac-C(PEG 40 kDa)}-GYFLFRPRN-NH2) [NMU7, C2 = Cys(PEG)240 kDa]
EC50 (hNMUR2; FLIPR): 36.1 nM | % Activity (hNMUR2; maximum response at 1 μM compared to hNMU-25): 91.8% | Body weight (BW) change (in grams) {relative to vehicle} Day 1 (diet-induced obese mice; 10 mg/kg): −1.7 grams | % Food intake (FI) reductions Day 1 (diet-induced obese mice; 10 mg/kg): 44% | EC50 (hNMUR1; FLIPR): 79.6 nM | % Activity (hNMUR1; maximum response at 1 μM compared to hNMU-25 response at same concentration): 91.4%

Ac-C3FRVDEEFQSPFASQSRGYFLFRPRN-CONH2 (Ac-CFRVDEEFQSPFASQSRGYFLFRPRN-NH2; not fully specified (residue 1); printed as Ac-C3FRVDEEFQSPFASQSRGYFLFRPRN-CONH2) [NMU10, C3 = cysteine linked to cholesterol via the side-chain thiol]
Body weight (BW) change (in grams) {relative to vehicle} Day 1 (diet-induced obese mice; 10 mg/kg): −1.2 grams | % Food intake (FI) reductions Day 1 (diet-induced obese mice; 10 mg/kg): 24%

P1-FRVDEEFQSPFASQSRGYFLFRPRN-CONH2 ({branched PEG 40 kDa}-FRVDEEFQSPFASQSRGYFLFRPRN-NH2) [NMU1, P1 = (PEG)240 kDa; branched PEG of 40 kDa linked at N-terminus of native human NMU]
half-life in human plasma: greater than three days | extension of serum half-life by PEGylation (diet-induced obese mice): three days | Body weight (BW) change (in grams) {relative to vehicle} Day 1 (diet-induced obese mice; 10 mg/kg): −1.4 grams | % Food intake (FI) reductions Day 1 (diet-induced obese mice; 10 mg/kg): 57% | Body weight (BW) change (in grams) {relative to vehicle} Day 2 (diet-induced obese mice; 10 mg/kg): −1.7 grams | % Food intake (FI) reductions Day 2 (diet-induced obese mice; 10 mg/kg): 56% | Body weight (BW) change (in grams) {relative to vehicle} Day 3 (diet-induced obese mice; 10 mg/kg): −0.4 grams | % Food intake (FI) reductions Day 3 (diet-induced obese mice; 10 mg/kg): 22% | efficacy at reducing overnight food intake compared to hNMU-25 (diet-induced obese mice; acute subcutaneous administration): greater efficacy | body weight (diet-induced obese mice): Significant reductions in body weight | duration of reductions in food intake (diet-induced obese mice): three days post-dose
